Reference: US20250025500A1, “PHOSPHATASE INHIBITORS AS NK CELLS MODULATORS FOR THE TREATMENT OF CANCER” (Kanyr Pharma Inc., priority 2021, published 2025)

Key:
[1] = system: NK-92 cells against Reh cells; assay: NK-92 cytolytic assay against NK resistant Reh target cells; type: cell-based, Human; conditions: 30 μM three days, IL-2 100 IU/mL, 3 h assay
Description: Human NK cell line NK-92 was purchased from American Type Culture Collection (ATCC) and cultured in α-MEM Essential Medium (no ribonucleoside and deoxyribonucleoside) supplemented with 0.2 mM Myo-inositol, 0.02 mM Folic Acid, 0.1 mM β-mercaptoethanol, 1% of Non-essential Amino Acids, 1×L-Glutamax, 1% of Penicillin/Streptomycin, 12.5% of heat-inactivated Horse, and 12.5% of heat-inactivated Characterized Fetal Bovine Serum or FBS. The media was supplemented freshly with 200 IU/mL of IL-2 upon cell thawing for one passage and 100 IU/mL of IL-2 for cell expansion. Human tumor cell lines K-562 and Reh were purchased from ATCC and were cultured in RPM11640 Medium supplemented with 1% of Penicillin/Streptomycin and 10% of heat inactivated FBS. HEK293T/17 cells and HCT116 cells were cultured in Dulbecco's Modified Eagle's Medium (DMEM) High Glucose Medium supplemented with 1% of Penicillin/Streptomycin and 10% of FBS. All cell lines were maintained in 5% CO2, 37° C. incubator, except that NK-92 were maintained in 6.5% CO2 incubator at 37° C. […]
NK-92 anti-tumor cytolysis function was assessed by flow cytometry-based analysis. […] Flow cytometry sample acquisition was performed with BDO LSRFortessa™ with a UV laser at Flow Cytometry Core Facility, McGill University, and data was analyzed with FlowJo™ 10.7.1 and summarized with Prism™ 9 (GraphPad™). […]

NK-92 cells [2] = assay: qRT-PCR of lytic granule and IFNG mRNA in NK-92; type: cell-based, Human; conditions: steady state
Description: Total RNA was isolated with Qiagen™ RNeasy® Mini Kit™ without DNase I on column digestion, according to the manufactures protocol. Purified total RNA was resuspended in Dnase free, Rnase free, Protease free sterile water and quantified with NanoDrop™. A260/280 was above 2.0 (data not shown). RNA integrity was checked by gel electrophoresis. 500 ng of RNA was reverse transcribed into cDNA using the SuperScript™ III Reverse Transcriptase Kit™ (Thermo Fisher Scientific™), according to the manufacturer's protocol with random primer and Oligo(dT) 20 primer. Synthesized cDNA was treated with RNaseH. qRT-PCR was performed with BioRad™ CFX96 Real Time PCR Detection™ system using FastStart Essential DNA Green Master™ according to the manufacturer's instructions. TBP and B2M was used as housekeeping genes. Delta delta Cq method was used for analyzing relative expression of gene of interests with normalization to housekeeping genes.

NK-92 cells [3] = assay: Degranulation assay of NK-92 (CD107a, perforin, granzyme B); type: cell-based, Human
Description: (§1) NK-92 cells pre-treated with L598 (30 μM) or vehicle control were stimulated with K-562 tumor target cells [effector: target (E:T) at 1:1] or PMA/lonomycin (1 μg/mL each) or no-stimulation control with K-562 complete media, respectively. Anti-CD107a or LAMP-1 antibody (1:100, PE/Cy7 conjugated, clone H4A3, from BioLegend®) was added to cells at the start of degranulation assay. Golgi stop (containing Monensin, 1 μM) and Golgi plug (containing Brefeldin A, 4 μg/mL) were added to cells one hour after degranulation assay started and were kept until the end of the 6-hour-degranulation assay. Intracellular staining of GrB (1:40, PE conjugated, clone QA18A28, from BioLegend®) and PRF (1:40, FITC conjugated, clone B-D48, from BioLegend®) were performed with the Fixation/Permeabilization Solution Kit (BD® Biosciences) according to the manufacture's protocol. Cells were stained with fixable viability dye (1:2000) for 20 mins on ice and in dark, and blocked with FcBlock (1:20, diluted in 1× Perm/Wash buffer, Human truStain FcX from BioLegend®) for 5 mins at room temperature and in dark before intracellular staining. Cell gating and percentage of population quantification was based on no-stimulation control. For kinetics of degranulation assay, measurements were taken over three hours at 15 mins, 30 mins, 60 mins, 120 mins and 180 mins, with L598 (30 μM, three days) treated group and vehicle control group under the condition of tumor target cell K-562 stimulation (E: T at 1:1) or no stimulation. Intracellular cytolytic granule contents GrA, GrB and PRF were measured as mentioned previously.

NK-92 cells [4] = assay: Surface receptor expression on NK-92 (flow cytometry); type: cell-based, Human
NK-92 cells [5] = assay: Multi-response analysis: cytokine production with degranulation in NK-92; type: cell-based, Human; conditions: 30 μM three days, tumor cell or PMA and ionomycin stimulation
Description: as §1, with “For kinetics of degranulation assay, measurements were taken over three hours at 15 mins, 30 mins, 60 mins, 120 mins and 180 mins, with L598 (30 μM, three days) treated group and vehicle control group under the condition of tumor target cell K-562 stimulation (E: T at 1:1) or no stimulation.” left out

[6] = system: PTPN1 and PTPN2 catalytic domain; conditions: Montalibet J, et al., J Biol Chem 2006; cited from earlier work
[7] = PMA/ionomycin 1 μg/mL each, six hours, vs control
[8] = three-hours cytolytic assay, K-562 stimulation

7-bromo-6-phosphono(difluoro-methyl)-3-napthalenonitrile [L598]
NK-92 cytolysis towards NK resistant target cells Reh [1]: did not improve
mRNA expression of perforin, granzyme A, granzyme B and granzyme K (NK-92 cells [2]; 30 μM three days): upregulated
IFN-γ mRNA (NK-92 cells [2]; 30 μM): upregulation
percentage of degranulating NK-92 cells (surface CD107a and intracellular lytic granules) (NK-92 cells [3]; 30 μM pre-treatment, K-562 stimulation six hours, vs control): smaller percentage
dead tumor target K-562 cells in degranulation assay (NK-92 cells [3]; K-562 stimulation E:T 1:1, vs control cells): more tumor target K-562 cells were found dead
degranulated NK-92 cells (CD107a+, Perforin− or Granzyme B−) under PMA and ionomycin (NK-92 cells [3]; [7]): less
degranulating NK-92 cells under PMA and ionomycin (NK-92 cells [3]; [7]): more
percentage of CD107a−, Perforin+ or CD107a−, Granzyme B+ population (NK-92 cells [3]; after six-hours K-562 stimulation, vs control): larger percentage
time from which granzyme B is degranulated more rapidly (NK-92 cells [3]; [8]): 60 min
time from which perforin is degranulated more rapidly (NK-92 cells [3]; [8]): 30 min
IL-2Rα (CD25) expression (NK-92 cells [4]; steady state, 10 μM): upregulated
IL-2Rβ (CD122) expression (NK-92 cells [4]; steady state, 10 μM): remained stable
CD69 and activating receptors NKp30, NKp46, NKG2D on NK-92 (NK-92 cells [4]; with or without K-562 stimulation): upregulation
percentages of CD107a+, IFN-γ+ and CD107a+, TNF-α+ cells (NK-92 cells [5]): larger percentages
binding specificity for PTPN1 and PTPN2 over other protein tyrosine phosphatases [6]: binds specifically to their catalytic domain but no other protein tyrosine phosphatases
